Data on one compound can be found in article PMC10865825, “Sugar-binding and split domain combinations in repeats-in-toxin adhesins from Vibrio cholerae and Aeromonas veronii mediate cell-surface recognition and hemolytic activities” (mBio, 2024).

Molecules are shown by their SMILES.

The experiment deals with T1, AvSBD-UKD (sugar-binding domain and split Ig-like domain of the A. veronii RTX adhesin, WP_103422706.1).
T1 construct: AvSBD-UKD, 40 kDa ortholog construct (WP_103422706.1), spanning SBD and UKD
Briefly: isothermal titration calorimetry ([…]°C, one-site model, N = […]). Further details: species or system Aeromonas veronii. A general note: ITC needs no label: the signal is the heat of the interaction.

For `C[C@@H]1OC(O)[C@@H](O)[C@H](O)[C@@H]1O` (stereo partly drawn) [L-fucose], the Kd was 15 µM.

The term Kd denotes a measure of binding affinity in units of concentration. Read a high Kd as lower affinity.
